Source: ChEMBL document CHEMBL4507284, “Data for DCP probe BI-1230” (2021)

Key:
[1] = biological target: Muscle, skeletal receptor tyrosine-protein kinase (Homo sapiens) (UniProt O15146); conditions: Compound concentration 1000.0 nM
[2] = biological target: Serine/threonine-protein kinase PknB (Mycobacterium tuberculosis) (UniProt P9WI81); conditions: Compound concentration 1000.0 nM
[3] = system: Mast/stem cell growth factor receptor Kit (Homo sapiens), P10721 [V559D]; conditions: Compound concentration 1000.0 nM
[4] = biological target: RAC-gamma serine/threonine-protein kinase (Homo sapiens) (UniProt Q9Y243); conditions: Compound concentration 1000.0 nM
[5] = biological target: SRSF protein kinase 2 (Homo sapiens) (UniProt P78362); conditions: Compound concentration 1000.0 nM
[6] = system: Leucine-rich repeat serine/threonine-protein kinase 2 (Homo sapiens), Q5S007 [G2019S]; conditions: Compound concentration 1000.0 nM
[7] = biological target: Dual specificity mitogen-activated protein kinase kinase 4 (Homo sapiens) (UniProt P45985); conditions: Compound concentration 1000.0 nM
[8] = biological target: Macrophage colony-stimulating factor 1 receptor (Homo sapiens) (UniProt P07333); conditions: Compound concentration 1000.0 nM
[9] = biological target: Activin receptor type-2A (Homo sapiens) (UniProt P27037); conditions: Compound concentration 1000.0 nM
[10] = biological target: SRSF protein kinase 1 (Homo sapiens) (UniProt Q96SB4); conditions: Compound concentration 1000.0 nM
[11] = biological target: Alpha-1A adrenergic receptor (Homo sapiens) (UniProt P35348); conditions: Compound concentration 10.0 uM
[12] = biological target: Serine/threonine-protein kinase RIO3 (Homo sapiens) (UniProt O14730); conditions: Compound concentration 1000.0 nM
[13] = biological target: Tyrosine-protein kinase JAK1 (Homo sapiens) (UniProt P23458); conditions: Compound concentration 1000.0 nM
[14] = biological target: Serine/threonine-protein kinase DCLK2 (Homo sapiens) (UniProt Q8N568); conditions: Compound concentration 1000.0 nM
[15] = biological target: Serine/threonine-protein kinase WNK4 (Homo sapiens) (UniProt Q96J92); conditions: Compound concentration 1000.0 nM
[16] = biological target: Serine/threonine-protein kinase pim-1 (Homo sapiens) (UniProt P11309); conditions: Compound concentration 1000.0 nM
[17] = biological target: Microtubule-associated serine/threonine-protein kinase 1 (Homo sapiens) (UniProt Q9Y2H9); conditions: Compound concentration 1000.0 nM
[18] = biological target: Ephrin type-B receptor 2 (Homo sapiens) (UniProt P29323); conditions: Compound concentration 1000.0 nM
[19] = biological target: Cyclin-dependent kinase 17 (Homo sapiens) (UniProt Q00537); conditions: Compound concentration 1000.0 nM
[20] = biological target: Dual serine/threonine and tyrosine protein kinase (Homo sapiens) (UniProt Q6XUX3); conditions: Compound concentration 1000.0 nM
[21] = system: ALK tyrosine kinase receptor (Homo sapiens), Q9UM73 [L1196M]; conditions: Compound concentration 1000.0 nM
[22] = biological target: Dual specificity tyrosine-phosphorylation-regulated kinase 1B (Homo sapiens) (UniProt Q9Y463); conditions: Compound concentration 1000.0 nM
[23] = biological target: Phosphatidylinositol 4,5-bisphosphate 3-kinase catalytic subunit gamma isoform (Homo sapiens) (UniProt P48736); conditions: Compound concentration 1000.0 nM
[24] = biological target: Serine/threonine-protein kinase Nek2 (Homo sapiens) (UniProt P51955); conditions: Compound concentration 1000.0 nM
[25] = biological target: Serine/threonine-protein kinase N2 (Homo sapiens) (UniProt Q16513); conditions: Compound concentration 1000.0 nM
[26] = biological target: 5-hydroxytryptamine receptor 1E (Homo sapiens) (UniProt P28566); conditions: Compound concentration 10.0 uM
[27] = system: Epidermal growth factor receptor (Homo sapiens), P00533 [UNDEFINED MUTATION]; conditions: Compound concentration 1000.0 nM
[28] = biological target: Phosphatidylinositol 4,5-bisphosphate 3-kinase catalytic subunit beta isoform (Homo sapiens) (UniProt P42338); conditions: Compound concentration 1000.0 nM
[29] = biological target: Calcium-dependent protein kinase 1 (Plasmodium falciparum) (UniProt P62344); conditions: Compound concentration 1000.0 nM
[30] = biological target: Dual specificity mitogen-activated protein kinase kinase 1 (Homo sapiens) (UniProt Q02750); conditions: Compound concentration 1000.0 nM
[31] = biological target: Serine/threonine-protein kinase OSR1 (Homo sapiens) (UniProt O95747); conditions: Compound concentration 1000.0 nM
[32] = biological target: Casein kinase I isoform gamma-3 (Homo sapiens) (UniProt Q9Y6M4); conditions: Compound concentration 1000.0 nM
[33] = biological target: Megakaryocyte-associated tyrosine-protein kinase (Homo sapiens) (UniProt P42679); conditions: Compound concentration 1000.0 nM
[34] = system: Tyrosine-protein kinase ABL1 (Homo sapiens), P00519 [T315I]; conditions: Compound concentration 1000.0 nM
[35] = biological target: Serine/threonine-protein kinase 3 (Homo sapiens) (UniProt Q13188); conditions: Compound concentration 1000.0 nM
[36] = biological target: Myosin-IIIa (Homo sapiens) (UniProt Q8NEV4); conditions: Compound concentration 1000.0 nM
[37] = biological target: Death-associated protein kinase 1 (Homo sapiens) (UniProt P53355); conditions: Compound concentration 1000.0 nM
[38] = biological target: Alpha-2C adrenergic receptor (Homo sapiens) (UniProt P18825); conditions: Compound concentration 10.0 uM
[39] = biological target: Phosphatidylinositol 4,5-bisphosphate 3-kinase catalytic subunit delta isoform (Homo sapiens) (UniProt O00329); conditions: Compound concentration 1000.0 nM
[40] = biological target: Serine/threonine-protein kinase MAK (Homo sapiens) (UniProt P20794); conditions: Compound concentration 1000.0 nM
[41] = biological target: Mitogen-activated protein kinase kinase kinase 4 (Homo sapiens) (UniProt Q9Y6R4); conditions: Compound concentration 1000.0 nM
[42] = biological target: Ribosomal protein S6 kinase alpha-1 (Homo sapiens) (UniProt Q15418); conditions: Compound concentration 1000.0 nM
[43] = biological target: Mitogen-activated protein kinase 12 (Homo sapiens) (UniProt P53778); conditions: Compound concentration 1000.0 nM
[44] = biological target: D(1B) dopamine receptor (Homo sapiens) (UniProt P21918); conditions: Compound concentration 10.0 uM
[45] = biological target: Citron Rho-interacting kinase (Homo sapiens) (UniProt O14578); conditions: Compound concentration 1000.0 nM

Chain of Ephrin type-B receptor 2 (Homo sapiens) (P29323 whole entry): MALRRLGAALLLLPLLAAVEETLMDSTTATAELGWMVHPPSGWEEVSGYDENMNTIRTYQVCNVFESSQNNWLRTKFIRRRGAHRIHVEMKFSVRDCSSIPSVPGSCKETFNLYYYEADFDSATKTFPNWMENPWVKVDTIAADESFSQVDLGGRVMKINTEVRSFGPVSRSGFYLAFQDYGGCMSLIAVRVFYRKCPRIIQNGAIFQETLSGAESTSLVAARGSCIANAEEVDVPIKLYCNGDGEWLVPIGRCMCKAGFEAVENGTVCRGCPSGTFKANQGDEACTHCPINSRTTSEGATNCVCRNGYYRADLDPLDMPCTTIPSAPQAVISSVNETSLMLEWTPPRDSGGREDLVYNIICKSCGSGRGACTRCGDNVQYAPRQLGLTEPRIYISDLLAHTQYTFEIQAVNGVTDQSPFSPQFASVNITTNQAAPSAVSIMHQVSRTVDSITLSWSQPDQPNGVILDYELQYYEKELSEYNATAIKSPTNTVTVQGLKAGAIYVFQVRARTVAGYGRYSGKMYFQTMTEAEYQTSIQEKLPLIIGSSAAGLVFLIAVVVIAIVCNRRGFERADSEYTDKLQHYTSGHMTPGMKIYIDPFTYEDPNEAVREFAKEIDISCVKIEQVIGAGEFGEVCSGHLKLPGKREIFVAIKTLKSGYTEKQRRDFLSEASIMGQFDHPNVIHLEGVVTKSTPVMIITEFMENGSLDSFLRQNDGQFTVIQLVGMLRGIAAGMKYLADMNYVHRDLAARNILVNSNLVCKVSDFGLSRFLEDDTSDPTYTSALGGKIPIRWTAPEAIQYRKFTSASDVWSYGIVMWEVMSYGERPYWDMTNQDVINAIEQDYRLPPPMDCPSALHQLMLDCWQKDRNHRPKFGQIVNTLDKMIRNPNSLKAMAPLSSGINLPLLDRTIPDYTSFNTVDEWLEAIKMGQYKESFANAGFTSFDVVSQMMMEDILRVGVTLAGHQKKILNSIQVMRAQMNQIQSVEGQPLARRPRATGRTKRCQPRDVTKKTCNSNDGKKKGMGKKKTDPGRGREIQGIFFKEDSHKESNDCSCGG
Chain of SRSF protein kinase 2 (Homo sapiens) (P78362 whole entry, looked up): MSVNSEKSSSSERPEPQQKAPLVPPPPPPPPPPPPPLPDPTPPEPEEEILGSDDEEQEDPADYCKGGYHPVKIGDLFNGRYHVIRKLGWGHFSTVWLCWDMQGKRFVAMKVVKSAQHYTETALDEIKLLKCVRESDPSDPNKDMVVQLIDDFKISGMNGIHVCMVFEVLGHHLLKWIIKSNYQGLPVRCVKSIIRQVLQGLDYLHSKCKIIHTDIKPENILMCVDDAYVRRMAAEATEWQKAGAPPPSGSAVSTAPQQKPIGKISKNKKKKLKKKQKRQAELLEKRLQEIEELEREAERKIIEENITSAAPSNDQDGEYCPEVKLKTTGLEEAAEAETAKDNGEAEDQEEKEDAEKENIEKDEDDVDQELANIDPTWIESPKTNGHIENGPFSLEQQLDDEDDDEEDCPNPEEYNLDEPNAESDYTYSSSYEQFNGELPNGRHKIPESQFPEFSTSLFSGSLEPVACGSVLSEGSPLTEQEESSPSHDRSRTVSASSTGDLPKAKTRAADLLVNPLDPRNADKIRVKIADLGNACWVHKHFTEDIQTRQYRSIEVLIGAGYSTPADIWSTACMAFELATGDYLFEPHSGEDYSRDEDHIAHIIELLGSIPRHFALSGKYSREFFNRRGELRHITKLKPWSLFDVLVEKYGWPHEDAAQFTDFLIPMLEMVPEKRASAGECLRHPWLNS
Chain of Serine/threonine-protein kinase DCLK2 (Homo sapiens) (Q8N568 whole entry): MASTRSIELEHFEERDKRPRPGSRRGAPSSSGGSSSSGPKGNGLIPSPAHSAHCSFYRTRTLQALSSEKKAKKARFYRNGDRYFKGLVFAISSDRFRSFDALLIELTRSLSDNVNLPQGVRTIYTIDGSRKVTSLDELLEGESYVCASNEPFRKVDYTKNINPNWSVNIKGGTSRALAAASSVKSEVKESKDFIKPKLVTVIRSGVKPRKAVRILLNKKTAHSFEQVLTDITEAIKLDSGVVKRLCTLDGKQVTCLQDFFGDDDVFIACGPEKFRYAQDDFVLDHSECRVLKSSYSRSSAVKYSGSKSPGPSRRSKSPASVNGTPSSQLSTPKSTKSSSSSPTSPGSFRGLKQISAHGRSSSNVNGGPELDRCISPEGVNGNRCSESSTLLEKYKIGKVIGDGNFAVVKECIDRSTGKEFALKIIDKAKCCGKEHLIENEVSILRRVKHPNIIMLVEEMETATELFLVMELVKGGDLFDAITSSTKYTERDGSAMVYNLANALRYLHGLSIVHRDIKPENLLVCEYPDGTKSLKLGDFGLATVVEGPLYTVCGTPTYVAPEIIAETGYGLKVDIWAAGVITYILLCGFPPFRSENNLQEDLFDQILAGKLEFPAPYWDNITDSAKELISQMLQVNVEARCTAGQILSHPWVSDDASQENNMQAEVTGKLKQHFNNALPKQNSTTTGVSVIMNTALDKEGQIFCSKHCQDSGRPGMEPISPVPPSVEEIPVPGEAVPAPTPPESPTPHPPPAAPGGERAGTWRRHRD
Chain of Serine/threonine-protein kinase pim-1 (Homo sapiens) (P11309 whole entry, looked up): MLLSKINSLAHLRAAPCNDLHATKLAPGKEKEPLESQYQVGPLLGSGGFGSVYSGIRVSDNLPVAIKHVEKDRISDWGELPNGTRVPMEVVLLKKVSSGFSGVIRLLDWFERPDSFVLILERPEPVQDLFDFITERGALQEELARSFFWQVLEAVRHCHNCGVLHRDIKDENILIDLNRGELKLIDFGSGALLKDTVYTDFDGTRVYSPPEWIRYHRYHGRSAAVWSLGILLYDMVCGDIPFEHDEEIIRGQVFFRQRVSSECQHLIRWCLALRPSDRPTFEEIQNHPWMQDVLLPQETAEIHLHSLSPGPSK
Chain of Dual specificity tyrosine-phosphorylation-regulated kinase 1B (Homo sapiens) (Q9Y463 whole entry, looked up, canonical isoform): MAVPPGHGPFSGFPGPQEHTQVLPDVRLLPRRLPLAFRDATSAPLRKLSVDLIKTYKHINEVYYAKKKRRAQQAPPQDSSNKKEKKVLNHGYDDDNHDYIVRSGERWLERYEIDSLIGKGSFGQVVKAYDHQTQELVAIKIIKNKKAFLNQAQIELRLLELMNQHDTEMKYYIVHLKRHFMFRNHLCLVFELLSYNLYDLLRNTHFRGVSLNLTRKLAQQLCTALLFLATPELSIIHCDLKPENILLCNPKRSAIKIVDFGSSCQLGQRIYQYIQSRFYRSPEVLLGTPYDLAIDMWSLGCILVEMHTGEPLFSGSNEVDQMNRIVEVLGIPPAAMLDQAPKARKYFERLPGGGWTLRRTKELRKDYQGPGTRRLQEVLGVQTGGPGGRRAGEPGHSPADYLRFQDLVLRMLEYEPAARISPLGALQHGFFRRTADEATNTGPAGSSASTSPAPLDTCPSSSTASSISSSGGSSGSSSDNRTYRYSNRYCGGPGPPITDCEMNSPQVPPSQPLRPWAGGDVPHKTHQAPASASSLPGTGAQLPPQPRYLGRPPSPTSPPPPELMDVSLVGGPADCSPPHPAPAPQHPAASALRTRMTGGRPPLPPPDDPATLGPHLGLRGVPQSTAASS
Chain of Macrophage colony-stimulating factor 1 receptor (Homo sapiens) (P07333 whole entry): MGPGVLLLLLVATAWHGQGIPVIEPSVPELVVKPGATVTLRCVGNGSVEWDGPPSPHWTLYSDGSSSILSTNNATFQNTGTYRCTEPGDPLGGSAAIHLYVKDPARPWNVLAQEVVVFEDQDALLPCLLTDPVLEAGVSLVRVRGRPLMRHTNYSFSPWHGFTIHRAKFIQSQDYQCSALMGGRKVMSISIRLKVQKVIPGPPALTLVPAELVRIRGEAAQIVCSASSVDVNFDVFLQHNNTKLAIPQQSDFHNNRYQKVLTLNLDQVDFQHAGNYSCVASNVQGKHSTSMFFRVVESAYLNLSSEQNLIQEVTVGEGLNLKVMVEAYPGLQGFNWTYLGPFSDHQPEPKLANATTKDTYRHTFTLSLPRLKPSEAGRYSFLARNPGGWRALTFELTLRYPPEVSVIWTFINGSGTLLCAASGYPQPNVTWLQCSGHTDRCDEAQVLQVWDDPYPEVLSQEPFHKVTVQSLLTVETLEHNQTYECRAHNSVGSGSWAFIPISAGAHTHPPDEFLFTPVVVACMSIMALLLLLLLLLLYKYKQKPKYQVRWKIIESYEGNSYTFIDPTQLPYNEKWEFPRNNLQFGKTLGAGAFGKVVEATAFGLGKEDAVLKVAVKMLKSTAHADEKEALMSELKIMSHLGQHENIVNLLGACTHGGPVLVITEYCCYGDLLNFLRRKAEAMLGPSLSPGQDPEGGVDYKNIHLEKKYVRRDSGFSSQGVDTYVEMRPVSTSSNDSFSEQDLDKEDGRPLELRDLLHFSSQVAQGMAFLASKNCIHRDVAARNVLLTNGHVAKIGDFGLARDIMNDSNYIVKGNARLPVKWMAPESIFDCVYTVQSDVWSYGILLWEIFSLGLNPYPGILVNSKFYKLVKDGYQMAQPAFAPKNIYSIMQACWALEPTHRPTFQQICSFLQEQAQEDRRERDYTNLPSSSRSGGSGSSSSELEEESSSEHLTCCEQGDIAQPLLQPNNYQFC
Chain of Serine/threonine-protein kinase MAK (Homo sapiens) (P20794 whole entry): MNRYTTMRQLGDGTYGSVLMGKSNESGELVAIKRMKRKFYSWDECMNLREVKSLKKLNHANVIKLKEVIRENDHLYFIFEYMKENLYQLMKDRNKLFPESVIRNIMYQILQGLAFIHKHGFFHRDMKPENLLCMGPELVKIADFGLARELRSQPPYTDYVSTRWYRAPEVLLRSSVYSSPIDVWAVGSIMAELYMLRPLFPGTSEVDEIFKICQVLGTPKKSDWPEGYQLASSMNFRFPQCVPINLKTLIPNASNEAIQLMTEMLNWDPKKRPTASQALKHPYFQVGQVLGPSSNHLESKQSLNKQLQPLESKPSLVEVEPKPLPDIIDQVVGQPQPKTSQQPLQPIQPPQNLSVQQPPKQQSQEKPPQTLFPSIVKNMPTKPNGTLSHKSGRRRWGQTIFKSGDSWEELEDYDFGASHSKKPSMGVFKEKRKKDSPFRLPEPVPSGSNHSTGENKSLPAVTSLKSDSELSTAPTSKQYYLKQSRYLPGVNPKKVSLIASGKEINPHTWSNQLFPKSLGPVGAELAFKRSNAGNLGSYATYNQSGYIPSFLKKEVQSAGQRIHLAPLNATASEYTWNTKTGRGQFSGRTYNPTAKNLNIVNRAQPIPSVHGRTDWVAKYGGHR

SMILES: COc1ccc2c(O[C@@H]3C[C@H]4C(=O)N[C@]5(C(=O)O)CC5/C=C\CCCCC[C@H](NC(=O)OC5CCCC5)C(=O)N4C3)cc(-c3csc(NC(=O)C(C)C)n3)nc2c1C (stereo not given in full) [BI 1230]
- residual activity [1]: 91%
- residual activity [2]: 94%
- residual activity [3]: 91%
- residual activity [4]: 93%
- residual activity [5]: 100%
- residual activity [6]: 91%
- residual activity [7]: 100%
- residual activity [8]: 71%
- residual activity [9]: 72%
- residual activity [10]: 100%
- inhibition [11]: 1.41%
- residual activity [12]: 100%
- residual activity [13]: 75%
- residual activity [14]: 95%
- residual activity [15]: 91%
- residual activity [16]: 97%
- residual activity [17]: 98%
- residual activity [18]: 98%
- residual activity [19]: 100%
- residual activity [20]: 68%
- residual activity [21]: 97%
- residual activity [22]: 74%
- residual activity [23]: 65%
- residual activity [24]: 94%
- residual activity [25]: 67%
- inhibition [26]: 14.9%
- residual activity [27]: 98%
- residual activity [28]: 62%
- residual activity [29]: 100%
- residual activity [30]: 85%
- residual activity [31]: 82%
- residual activity [32]: 100%
- residual activity [33]: 50%
- residual activity [34]: 92%
- residual activity [35]: 86%
- residual activity [36]: 100%
- residual activity [37]: 100%
- inhibition [38]: 56.8%
- residual activity [39]: 100%
- residual activity [40]: 100%
- residual activity [41]: 74%
- residual activity [42]: 74%
- residual activity [43]: 91%
- inhibition [44]: 47.1%
- residual activity [45]: 99%

SMILES: O=C(N[C@H]1CCCCC/C=C\C2C[C@@]2(C(=O)O)NC(=O)[C@@H]2C[C@@H](Oc3ccncc3)CN2C1=O)OC1CCCC1 (stereo not given in full) [BI 1675]
- residual activity [1]: 100%
- residual activity [2]: 93%
- residual activity [3]: 89%
- residual activity [4]: 94%
- residual activity [5]: 64%
- residual activity [6]: 86%
- residual activity [7]: 73%
- residual activity [8]: 95%
- residual activity [9]: 96%
- residual activity [10]: 91%
- inhibition [11]: 25.7%
- residual activity [12]: 100%
- residual activity [13]: 89%
- residual activity [14]: 93%
- residual activity [15]: 100%
- residual activity [16]: 100%
- residual activity [17]: 82%
- residual activity [18]: 91%
- residual activity [19]: 89%
- residual activity [20]: 100%
- residual activity [21]: 100%
- residual activity [22]: 46%
- residual activity [23]: 78%
- residual activity [24]: 94%
- residual activity [25]: 75%
- inhibition [26]: 0%
- residual activity [27]: 100%
- residual activity [28]: 100%
- residual activity [29]: 73%
- residual activity [30]: 92%
- residual activity [31]: 75%
- residual activity [32]: 100%
- residual activity [33]: 41%
- residual activity [34]: 100%
- residual activity [35]: 76%
- residual activity [36]: 94%
- residual activity [37]: 83%
- inhibition [38]: -4.47%
- residual activity [39]: 92%
- residual activity [40]: 82%
- residual activity [41]: 91%
- residual activity [42]: 100%
- residual activity [43]: 100%
- inhibition [44]: 11.3%
- residual activity [45]: 89%
